Assay results from publication PMC5218480 (PLoS ONE, 2017).

Tested on: MV-4-11 cells
Experiment: Gene expression microarray analysis (Affymetrix PrimeView) and GSEA
Type: cell-based, human
Parameters: RFU PODN (11730768_x_at) / Fold change /veh PODN (11730768_x_at) / RFU LINC00158 (11744669_a_at) / Fold change /veh LINC00158 (11744669_a_at) / RFU DUSP10 (11751237_a_at) / Fold change /veh DUSP10 (11751237_a_at) / RFU ID3 (11757404_x_at) / Fold change /veh ID3 (11757404_x_at) / RFU PLEKHG5 (11737974_s_at) / Fold change /veh PLEKHG5 (11737974_s_at) / RFU LRRC4B (11730491_at) / Fold change /veh LRRC4B (11730491_at) / RFU GIMAP4 (11747438_a_at) / Fold change /veh GIMAP4 (11747438_a_at) / RFU KRT8 (11758183_x_at) / Fold change /veh KRT8 (11758183_x_at) / RFU CNN1 (11734310_a_at) / Fold change /veh CNN1 (11734310_a_at) / RFU VPS37D (11726825_at) / Fold change /veh VPS37D (11726825_at) / RFU C10orf10 (11716522_x_at) / Fold change /veh C10orf10 (11716522_x_at) / RFU KIR2DL2 /// KIR2DL4 /// KIR2DL5A /// KIR2DL5B /// KIR2DS1 /// KIR2DS2 /// KIR2DS3 /// KIR2DS4 /// KIR3DL3 /// KIR3DL3 /// KIR3DS1 (11738374_at) / Fold change /veh KIR2DL2 /// KIR2DL4 /// KIR2DL5A /// KIR2DL5B /// KIR2DS1 /// KIR2DS2 /// KIR2DS3 /// KIR2DS4 /// KIR3DL3 /// KIR3DL3 /// KIR3DS1 (11738374_at) / RFU C1QL1 (11718748_at) / Fold change /veh C1QL1 (11718748_at) / RFU TMPRSS4 (11747572_a_at) / Fold change /veh TMPRSS4 (11747572_a_at) / RFU HAMP (11756126_x_at) / Fold change /veh HAMP (11756126_x_at) / RFU RNFT2 (11725882_a_at) / Fold change /veh RNFT2 (11725882_a_at) / RFU NR4A2 (11747474_a_at) / Fold change /veh NR4A2 (11747474_a_at) / RFU ABCC12 (11746883_a_at) / Fold change /veh ABCC12 (11746883_a_at) / RFU TMEM136 (11760407_x_at) / Fold change /veh TMEM136 (11760407_x_at) / RFU CLDN22 /// WWC2 (11732394_at) / Fold change /veh CLDN22 /// WWC2 (11732394_at) / RFU HLA-DPB1 (11760878_x_at) / Fold change /veh HLA-DPB1 (11760878_x_at) / RFU SPINT1 (11716480_a_at) / Fold change /veh SPINT1 (11716480_a_at) / RFU GAP43 (11754022_s_at) / Fold change /veh GAP43 (11754022_s_at) / RFU A4GNT (11735810_at) / Fold change /veh A4GNT (11735810_at) / RFU PRB3 (11715151_x_at) / Fold change /veh PRB3 (11715151_x_at) / RFU TUBB4B (11761932_at) / Fold change /veh TUBB4B (11761932_at) / RFU CAPN14 (11732068_a_at) / Fold change /veh CAPN14 (11732068_a_at) / RFU TMCC2 (11721928_a_at) / Fold change /veh TMCC2 (11721928_a_at) / RFU IRGQ (11745062_a_at) / Fold change /veh IRGQ (11745062_a_at) / RFU FAM174B (11720279_a_at) / Fold change /veh FAM174B (11720279_a_at) / RFU TMPRSS4 (11748680_a_at) / Fold change /veh TMPRSS4 (11748680_a_at) / RFU FAM212B (11763350_a_at) / Fold change /veh FAM212B (11763350_a_at) / RFU PLEKHG5 (11743358_a_at) / Fold change /veh PLEKHG5 (11743358_a_at) / RFU ZSCAN30 (11745921_a_at) / Fold change /veh ZSCAN30 (11745921_a_at) / RFU CMKLR1 (11741424_a_at) / Fold change /veh CMKLR1 (11741424_a_at) / RFU LOC101060620 /// MAPK8IP1 (11723275_at) / Fold change /veh LOC101060620 /// MAPK8IP1 (11723275_at) / RFU SPTSSB (11747773_x_at) / Fold change /veh SPTSSB (11747773_x_at) / RFU PRSS12 (11739890_at) / Fold change /veh PRSS12 (11739890_at) / RFU BIN1 (11741810_x_at) / Fold change /veh BIN1 (11741810_x_at) / RFU WNT11 (11732464_a_at) / Fold change /veh WNT11 (11732464_a_at) / RFU C10orf10 (11716521_a_at) / Fold change /veh C10orf10 (11716521_a_at) / RFU C5orf56 (11738089_at) / Fold change /veh C5orf56 (11738089_at) / RFU CYB561 (11721691_x_at) / Fold change /veh CYB561 (11721691_x_at) / RFU ANKRD19P (11752326_a_at) / Fold change /veh ANKRD19P (11752326_a_at) / RFU OR2T12 /// OR2T33 /// OR2T8 (11738714_s_at) / Fold change /veh OR2T12 /// OR2T33 /// OR2T8 (11738714_s_at) / RFU VCAN (11748164_a_at) / Fold change /veh VCAN (11748164_a_at) / RFU JSRP1 (11732532_at) / Fold change /veh JSRP1 (11732532_at) / RFU KRTAP10-11 (11738290_x_at) / Fold change /veh KRTAP10-11 (11738290_x_at) / RFU MYO3A (11730013_a_at) / Fold change /veh MYO3A (11730013_a_at) / RFU EBF3 (11725865_a_at) / Fold change /veh EBF3 (11725865_a_at) / RFU CAMK2N1 (11719241_x_at) / Fold change /veh CAMK2N1 (11719241_x_at) / RFU C5orf56 (11738088_a_at) / Fold change /veh C5orf56 (11738088_a_at) / RFU OLFML3 (11715873_a_at) / Fold change /veh OLFML3 (11715873_a_at) / RFU LOC100653217 /// NTM (11731650_a_at) / Fold change /veh LOC100653217 /// NTM (11731650_a_at) / RFU MAPK11 (11762145_a_at) / Fold change /veh MAPK11 (11762145_a_at) / RFU FIZ1 (11724087_x_at) / Fold change /veh FIZ1 (11724087_x_at) / RFU OASL (11726364_x_at) / Fold change /veh OASL (11726364_x_at) / RFU SOX15 (11748057_x_at) / Fold change /veh SOX15 (11748057_x_at) / RFU CD79A (11719716_a_at) / Fold change /veh CD79A (11719716_a_at) / RFU HIST1H1D (11736915_at) / Fold change /veh HIST1H1D (11736915_at) / RFU CASKIN2 (11723855_a_at) / Fold change /veh CASKIN2 (11723855_a_at) / RFU LOC730098 (11760151_x_at) / Fold change /veh LOC730098 (11760151_x_at) / RFU OR4N2 (11742367_at) / Fold change /veh OR4N2 (11742367_at) / RFU PRRT2 (11749266_a_at) / Fold change /veh PRRT2 (11749266_a_at) / RFU SNX32 (11753110_a_at) / Fold change /veh SNX32 (11753110_a_at) / RFU CDHR5 (11726645_a_at) / Fold change /veh CDHR5 (11726645_a_at) / RFU RCAN1 (11760418_a_at) / Fold change /veh RCAN1 (11760418_a_at) / RFU FAM167A (11723789_a_at) / Fold change /veh FAM167A (11723789_a_at) / RFU FAM26E (11764081_at) / Fold change /veh FAM26E (11764081_at) / RFU ISYNA1 (11749810_s_at) / Fold change /veh ISYNA1 (11749810_s_at) / RFU ACY1 (11761880_at) / Fold change /veh ACY1 (11761880_at) / RFU 11764098_at / Fold change /veh 11764098_at / RFU SAMD14 (11745864_x_at) / Fold change /veh SAMD14 (11745864_x_at) / RFU NPB (11741838_a_at) / Fold change /veh NPB (11741838_a_at) / RFU TMPRSS6 (11731388_a_at) / Fold change /veh TMPRSS6 (11731388_a_at) / RFU KRTAP10-2 (11738614_at) / Fold change /veh KRTAP10-2 (11738614_at) / RFU ARHGAP8 /// PRR5-ARHGAP8 (11727945_x_at) / Fold change /veh ARHGAP8 /// PRR5-ARHGAP8 (11727945_x_at) / RFU KRTAP5-7 /// NADSYN1 (11734609_at) / Fold change /veh KRTAP5-7 /// NADSYN1 (11734609_at) / RFU RASL12 (11751679_a_at) / Fold change /veh RASL12 (11751679_a_at) / RFU CDKN2B (11736163_a_at) / Fold change /veh CDKN2B (11736163_a_at) / RFU PRF1 (11729649_at) / Fold change /veh PRF1 (11729649_at) / RFU, ZNF638 /// ZNF638-IT1 / Fold change vs veh, ZNF638 /// ZNF638-IT1 / RFU, PANK3 / Fold change vs veh, PANK3 / RFU, SH3YL1 / Fold change vs veh, SH3YL1 / RFU, ZEB2 / Fold change vs veh, ZEB2 / RFU, NRIP1 / Fold change vs veh, NRIP1 / RFU, PTTG1IP / Fold change vs veh, PTTG1IP / RFU, CAPN2 / Fold change vs veh, CAPN2 / RFU, MED14 / Fold change vs veh, MED14 / RFU, SNORA58 / Fold change vs veh, SNORA58 / RFU, C1orf63 / Fold change vs veh, C1orf63 / RFU, LRRFIP1 / Fold change vs veh, LRRFIP1 / RFU, NDUFAF7 / Fold change vs veh, NDUFAF7 / RFU, SLC12A2 / Fold change vs veh, SLC12A2 / RFU, IBTK / Fold change vs veh, IBTK / RFU, ESF1 / Fold change vs veh, ESF1 / Fold change vs veh, TMEM50B / RFU, TAOK1 / Fold change vs veh, TAOK1 / RFU, ACBD3 / Fold change vs veh, ACBD3 / RFU, TMA16 / Fold change vs veh, TMA16 / RFU, RWDD3 / Fold change vs veh, RWDD3 / RFU, BCAT1 / Fold change vs veh, BCAT1 / RFU, EDEM3 / Fold change vs veh, EDEM3 / RFU, TMEM33 / Fold change vs veh, TMEM33 / RFU, WDR75 / Fold change vs veh, WDR75 / RFU, AHCTF1 / Fold change vs veh, AHCTF1 / RFU, TFRC / Fold change vs veh, TFRC / RFU, ZDHHC17 / Fold change vs veh, ZDHHC17 / RFU, NOM1 / Fold change vs veh, NOM1 / RFU, ARL8B / Fold change vs veh, ARL8B / RFU, ZBTB11 / Fold change vs veh, ZBTB11 / RFU, TAMM41 / Fold change vs veh, TAMM41 / RFU, KIAA1704 /// LOC100996395 / Fold change vs veh, KIAA1704 /// LOC100996395 / RFU, ING1 / Fold change vs veh, ING1 / RFU, TRMT61B / Fold change vs veh, TRMT61B / RFU, FUBP3 / Fold change vs veh, FUBP3 / RFU, TP53 / Fold change vs veh, TP53 / RFU, TNKS2 / Fold change vs veh, TNKS2 / RFU, ZFP14 / Fold change vs veh, ZFP14 / RFU, ACTR2 / Fold change vs veh, ACTR2 / RFU, PPP3R1 / Fold change vs veh, PPP3R1 / RFU, PIK3R1 / Fold change vs veh, PIK3R1 / RFU, HNRNPA1 / Fold change vs veh, HNRNPA1 / RFU, RNF170 / Fold change vs veh, RNF170 / RFU, ZNF28 / Fold change vs veh, ZNF28 / RFU, RNGTT / Fold change vs veh, RNGTT / RFU, OGT / Fold change vs veh, OGT / RFU, BRD1 / Fold change vs veh, BRD1 / RFU, MARS / Fold change vs veh, MARS / RFU, ZNF655 / Fold change vs veh, ZNF655 / RFU, FAHD1 / Fold change vs veh, FAHD1 / RFU, BDP1 / Fold change vs veh, BDP1 / RFU, LRRCC1 / Fold change vs veh, LRRCC1 / RFU, ARID1A / Fold change vs veh, ARID1A / RFU, ZNF146 / Fold change vs veh, ZNF146 / RFU, ZNF330 / Fold change vs veh, ZNF330 / RFU, GPN3 / Fold change vs veh, GPN3 / RFU, C9orf123 / Fold change vs veh, C9orf123 / RFU, N4BP2L2 / Fold change vs veh, N4BP2L2 / RFU, ARFIP1 / Fold change vs veh, ARFIP1 / RFU, FAM179B / Fold change vs veh, FAM179B / RFU, BCL10 / Fold change vs veh, BCL10 / RFU, UHRF1BP1L / Fold change vs veh, UHRF1BP1L / RFU, BET1 / Fold change vs veh, BET1 / RFU, CNOT2 / Fold change vs veh, CNOT2 / RFU, ZNF268 / Fold change vs veh, ZNF268 / Fold change vs veh, ZNF507 / RFU, DGCR2 / Fold change vs veh, DGCR2 / RFU, WDSUB1 / Fold change vs veh, WDSUB1 / Fold change vs veh, HSP90B1 /// MIR3652 / RFU, ADSS / Fold change vs veh, ADSS / RFU, GK / Fold change vs veh, GK / RFU, ZNF148 / Fold change vs veh, ZNF148 / RFU, TAF9 / Fold change vs veh, TAF9 / RFU, SLC1A5 / Fold change vs veh, SLC1A5 / RFU, SLMO2 / Fold change vs veh, SLMO2 / RFU, ABCC4 / Fold change vs veh, ABCC4 / RFU, LOC101060439 /// RAP1B / Fold change vs veh, LOC101060439 /// RAP1B / RFU, RFX7 / Fold change vs veh, RFX7 / RFU, GTPBP10 / Fold change vs veh, GTPBP10 / RFU, CNEP1R1 / Fold change vs veh, CNEP1R1 / RFU, BIVM-ERCC5 /// ERCC5 / Fold change vs veh, BIVM-ERCC5 /// ERCC5 / RFU, ILF3 / Fold change vs veh, ILF3 / RFU 11762660_at / Fold change /veh 11762660_at / RFU VCAN (11757783_s_at) / Fold change /veh VCAN (11757783_s_at) / RFU DDX43 (11728927_at) / Fold change /veh DDX43 (11728927_at) / RFU KRT8 (11758188_x_at) / Fold change /veh KRT8 (11758188_x_at) / RFU NKD1 (11759106_at) / Fold change /veh NKD1 (11759106_at) / RFU SRD5A1 (11742802_a_at) / Fold change /veh SRD5A1 (11742802_a_at) / RFU TPSAB1 /// TPSB2 (11721975_s_at) / Fold change /veh TPSAB1 /// TPSB2 (11721975_s_at) / RFU GSTM3 (11746129_a_at) / Fold change /veh GSTM3 (11746129_a_at) / RFU IL23R (11737362_x_at) / Fold change /veh IL23R (11737362_x_at) / RFU TMEM51 (11727254_a_at) / Fold change /veh TMEM51 (11727254_a_at) / RFU PIWIL2 (11732686_x_at) / Fold change /veh PIWIL2 (11732686_x_at) / RFU ORM1 (11744905_x_at) / Fold change /veh ORM1 (11744905_x_at) / RFU CCDC152 (11743942_at) / Fold change /veh CCDC152 (11743942_at) / RFU ECM1 (11717891_a_at) / Fold change /veh ECM1 (11717891_a_at) / RFU IL23R (11748794_a_at) / Fold change /veh IL23R (11748794_a_at) / RFU TNFAIP8L3 (11732012_x_at) / Fold change /veh TNFAIP8L3 (11732012_x_at) / RFU MBOAT4 (11741988_at) / Fold change /veh MBOAT4 (11741988_at) / RFU 11764193_at / Fold change /veh 11764193_at / RFU TMEM53 (11763286_at) / Fold change /veh TMEM53 (11763286_at) / RFU MAGEB2 (11727129_at) / Fold change /veh MAGEB2 (11727129_at) / RFU TMEM200A (11744735_a_at) / Fold change /veh TMEM200A (11744735_a_at) / RFU CCDC152 (11751479_a_at) / Fold change /veh CCDC152 (11751479_a_at) / RFU FAM211A (11726209_a_at) / Fold change /veh FAM211A (11726209_a_at) / RFU RGS16 (11746705_a_at) / Fold change /veh RGS16 (11746705_a_at) / RFU VCAN (11755009_s_at) / Fold change /veh VCAN (11755009_s_at) / RFU RHOB (11743442_s_at) / Fold change /veh RHOB (11743442_s_at) / RFU RGS16 (11720943_a_at) / Fold change /veh RGS16 (11720943_a_at) / RFU RGS16 (11720944_at) / Fold change /veh RGS16 (11720944_at) / RFU, VPS4B / Fold change vs veh, VPS4B / RFU, CREB1 / Fold change vs veh, CREB1 / RFU, DNAJC13 / Fold change vs veh, DNAJC13 / RFU, GNAQ / Fold change vs veh, GNAQ / RFU, CDK5R1 / Fold change vs veh, CDK5R1 / RFU, ZRANB3 / Fold change vs veh, ZRANB3 / RFU, CUL4A / Fold change vs veh, CUL4A / RFU, CCNY / Fold change vs veh, CCNY / RFU, UFL1 / Fold change vs veh, UFL1 / RFU, COG3 / Fold change vs veh, COG3 / RFU, DIAPH2 / Fold change vs veh, DIAPH2 / RFU, SKA2 / Fold change vs veh, SKA2 / RFU, AFF3 / Fold change vs veh, AFF3 / RFU, LMF1 / Fold change vs veh, LMF1 / RFU, IPO11 / Fold change vs veh, IPO11 / RFU, DFFB / Fold change vs veh, DFFB / RFU, FOXP1 / Fold change vs veh, FOXP1 / RFU, CARD8 / Fold change vs veh, CARD8 / RFU, STRN3 / Fold change vs veh, STRN3 / RFU, ADK / Fold change vs veh, ADK / RFU, RASSF2 / Fold change vs veh, RASSF2 / RFU, WIPF1 / Fold change vs veh, WIPF1 / RFU, LARP1B / Fold change vs veh, LARP1B / RFU, RASA1 / Fold change vs veh, RASA1 / RFU, RB1 / Fold change vs veh, RB1 / RFU, PPFIA1 / Fold change vs veh, PPFIA1 / RFU, MAT2A / Fold change vs veh, MAT2A / RFU, CCT5 / Fold change vs veh, CCT5 / RFU, WDR92 / Fold change vs veh, WDR92 / RFU, CUX1 / Fold change vs veh, CUX1 / RFU, TTC7A / Fold change vs veh, TTC7A / RFU, TMEM135 / Fold change vs veh, TMEM135 / RFU, DEPTOR / Fold change vs veh, DEPTOR / RFU, CPM / Fold change vs veh, CPM / RFU, DNAJB6 / Fold change vs veh, DNAJB6 / RFU, CACNA2D3 / Fold change vs veh, CACNA2D3 / RFU, DTX4 / Fold change vs veh, DTX4 / RFU, TFCP2 / Fold change vs veh, TFCP2 / RFU, GMCL1 /// GMCL1P1 / Fold change vs veh, GMCL1 /// GMCL1P1 / RFU, AEBP2 / Fold change vs veh, AEBP2 / RFU, SNHG1 /// SNORD22 /// SNORD25 /// SNORD26 /// SNORD27 /// SNORD28 /// SNORD29 /// SNORD31 / Fold change vs veh, SNHG1 /// SNORD22 /// SNORD25 /// SNORD26 /// SNORD27 /// SNORD28 /// SNORD29 /// SNORD31 / Fold change (Aza/veh), C12orf56 (ProbeSet 11735607_a_at) / Fold change (ACY-1035/veh), C12orf56 (ProbeSet 11735607_a_at) / Fold change (Aza/veh), FGFR1OP (ProbeSet 11751329_s_at) / Fold change (ACY-1035/veh), FGFR1OP (ProbeSet 11751329_s_at) / Fold change (Aza/veh), VPS36 (ProbeSet 11739960_a_at) / Fold change (ACY-1035/veh), VPS36 (ProbeSet 11739960_a_at) / RFU SYPL1 (11715823_x_at) / Fold change /veh SYPL1 (11715823_x_at) / RFU IGFBP7 (11715501_s_at) / Fold change /veh IGFBP7 (11715501_s_at) / RFU REEP3 (11722064_at) / Fold change /veh REEP3 (11722064_at) / RFU IGLL1 (11728026_x_at) / Fold change /veh IGLL1 (11728026_x_at): dose or concentration left out as unconfirmed
Settings: MV-4-11 cells, 48 hours

With `Nc1ccc(-c2cccs2)cc1NC(=O)c1ccc2c(c1)cc(C1CC1)n2CCN1CCOCC1` [ACY-1035] the “Fold change /veh FAM174B (11720279_a_at)” value was 1.09.
